The values that follow come from patent US20100105637A1, “Drug-surfactant complexes for sustained release” (priority 2005, published 2010).

Structures are written as SMILES. Structures can show the parent of a compound that is named as a salt.

The series in a line: Fractional release of drug from tablets into stirred aqueous solution, measured by uv/vis spectroscopy. Format: physicochemical. Conditions: 150 mg tablets without binders or excipients, pH 7.0 water, stirred at 100 rpm (FIG. 1).

Method: The tablets were placed into pH 7.0 water and stirred with a stirrer at 100 rpm. Fractional release was determined by uv/vis spectroscopy of the aqueous solution at 278 nm to measure the concentration of diltiazem in solution.
The tablets were placed in pH 7.0 water and stirred at 100 rpm, and fractional release was measured as above.
The drug-bile complex was pressed into tablets without any binders or excipients as in Example 1.

Take `COc1ccc([C@@H]2Sc3ccccc3N(CCN(C)C)C(=O)[C@@H]2OC(C)=O)cc1` [diltiazem-HCl, Diltiazem-HCl]: the “amount of diltiazem released at the first time point” value is on record as “all”.
